Laboratory results taken from patent US10947202B2, “Sodium ion channel inhibitors and pharmaceutically acceptable salts and polymorphs thereof and uses thereof” (SHANGHAI HAIYAN PHARMACEUTICAL TECHNOLOGY CO., LTD., priority 2017, dated 2021).
Values after ≈ are worked out from the molar mass of the structure shown.

How the values were obtained:
Format in all cases: physicochemical
Solubility experiment = conditions: for Solubility (mg/mL) 0.1M HCl / Solubility (mg/mL) H2O: room temperature; for Solubility (mg/mL) pH6.8: buffer pH 6.8, room temperature; for Solubility (mg/mL) H2O: water
Procedure: The solubility of crystal forms A, D, E-1, E-3, F and free base sample in buffer of 0.1M HCl, pH 4.5, pH 6.8 and water was tested at room temperature. In the test, the standard curves of free base sample and five crystal forms were plotted. Subsequently, 6 mg of API and five crystal form samples were weighed, respectively, and 2 ml of the solvent was added, the mixture was shaken at room temperature for 4 h, then ultrasonicated for 30 min, centrifuged, and the supernatant was taken out, filtered through a 0.45 μm filter and injected, and the solubility was measured, the results are shown in Table 28 (concentration is in mg/ml).

[1] = Stability experiment (storage of crystal forms, HPLC)
Procedure: High performance liquid chromatography spectrum was acquired on an Agilent 1260 HPLC, the specific instrument and test parameters are shown in the table 18 below.
Another set of samples were sealed at 5° C. and kept as a control at the same time. […]

[2] = Hygroscopicity experiment (DVS)
Source text: The Dynamic Vapor Sorption (DVS) curve was acquired on the DVS Intrinsic of Surface Measurement Systems.
The DVS results for crystal forms A, D, E-3 and F are shown in FIG. 1E, FIG. 4F, FIG. 7E and FIG. 8E, respectively.

[3] = Crystal form stability on shaking in solvent or heating (XRPD); conditions: for crystal form after shaking of mixed forms: crystal forms III and IV mixed in ACE and MeOH, shaken at 50° C. for 1 day
Procedure: The reaction solution in the step 4 of Example 1 was poured into water, extracted with ethyl acetate, dried and concentrated, ethanol was added to dissolve and the solution was evaporated, 1N hydrochloric acid and ethyl acetate were added and stirred for 1-2 h, filtered, a solid product which was the crystal form III of free base was obtained, the X-ray powder diffraction pattern is shown in FIG. 11A (the 2θ angle has been marked), the DSC/TGA/DVS patterns are shown in FIGS. 11B, 11C and 11D. According to the DSC pattern, there is an inflection point around 100° C., and the sample has a melting absorption peak at 181.9° C. […] The sample was shaken in ACE and MeOH at 50° C. for 1 day, and the crystal form was unchanged.
The reaction solution in the step 4 of Example 1 was poured into water, extracted with ethyl acetate, dried and concentrated to retain a small amount of ethyl acetate, 1N hydrochloric acid was added and stirred for 1 h, filtered, the filter cake was washed with ethanol and then filtered to obtain a solid product which was the crystal form IV of free base was obtained. The X-ray powder diffraction pattern is shown in FIG. 12A (the […] has been marked), the DSC/TGA/DVS patterns are shown in FIGS. 12B, 12C and 12D. […] The sample was shaken in ACE at 50° C. for 1 day, and the crystal form was unchanged. […]

[4] = buffer pH 4.5, room temperature
[5] = 5° C. 0 d, — = below detection limit
[6] = 40° C. 75% RH 14 d, — = below detection limit
[7] = 60° C. 7 d, — = below detection limit
[8] = 60° C. 21 d, — = below detection limit

Structure (SMILES)	Solubility (mg/mL) 0.1M HCl (Solubility experiment) [mg/mL]	Solubility (mg/mL) pH4.5 (Solubility experiment; [4]) [mg/mL]	Solubility (mg/mL) pH6.8 (Solubility experiment) [mg/mL]	Solubility (mg/mL) H2O (Solubility experiment) [mg/mL]	RRT (%) 0.86 ([1]; 5° C. 0 d) [%]	RRT (%) 1.00 ([1]; 5° C. 0 d) [%]	RRT (%) 1.05 ([1]; 5° C. 0 d) [%]	Total impurities (%) ([1]; 5° C. 0 d)	Content (%) ([1]; 40° C. 75% RH 14 d)	RRT (%) 1.00 ([1]; 40° C. 75% RH 14 d) [%]	RRT (%) 1.05 ([1]; 40° C. 75% RH 14 d) [%]	Total impurities (%) ([1]; 40° C. 75% RH 14 d)	Content (%) ([1]; 60° C. 7 d)	RRT (%) 0.86 ([1]; 60° C. 7 d) [%]	RRT (%) 1.00 ([1]; 60° C. 7 d) [%]	RRT (%) 1.05 ([1]; 60° C. 7 d) [%]	Total impurities (%) ([1]; 60° C. 7 d)	Content (%) ([1]; 60° C. 21 d)	RRT (%) 1.00 ([1]; 60° C. 21 d) [%]	hygroscopicity (DVS curve) [2]	further results
Cc1cc(N2CCN(Cc3cc(F)c(C(=O)NS(=O)(=O)C4CC4)cc3Cl)CC2)ccc1Cl [crystal form A, 5-chloro-4-((4-(4-chloro-3-methylphenyl)piperazin-1-yl)methyl)-N-(cyclopropylsulfonyl)-2-fluorobenzamide]	0.011 (≈ 22 µM)	0.001	0.01	0.005 (≈ 9.99 µM)	0.05	99.84	0.04	0.16	99.8	99.83	0.02	0.17	98.6	0.05	99.84	0.02	0.16	97.6	99.82	slightly hygroscopic	RRT (%) 0.79 [1, 5]: 0.07%; RRT (%) 0.79 [1, 6]: 0.07%; RRT (%) 0.88 [1, 6]: 0.04%; RRT (%) 0.79 [1, 7]: 0.08%; RRT (%) 1.05 ([1]; 60° C. 21 d): 0.03%; Total impurities (%) ([1]; 60° C. 21 d): 0.18%; RRT (%) 0.79 [1, 8]: 0.07%; RRT (%) 0.86 [1, 8]: 0.02%; RRT (%) 0.88 [1, 8]: 0.05%; moisture absorbed (DVS) ([2]; at 95% RH): 0.4%
Cc1cc(N2CCN(Cc3cc(F)c(C(=O)NS(=O)(=O)C4CC4)cc3Cl)CC2)ccc1Cl [crystal form D, 5-chloro-4-((4-(4-chloro-3-methylphenyl)piperazin-1-yl)methyl)-N-(cyclopropylsulfonyl)-2-fluorobenzamide]	0.018 (≈ 36 µM)	0.002	0.016	0.005 (≈ 9.99 µM)	0.03	99.90	0.03	0.11	100.2	99.90	0.03	0.09	98.9	0.03	99.90	0.03	0.11	99.1	99.91	almost no hygroscopicity	RRT (%) 0.79 [1, 5]: 0.04%; RRT (%) 0.79 [1, 6]: 0.04%; RRT (%) 0.88 [1, 6]: 0.02%; RRT (%) 0.79 [1, 7]: 0.04%; RRT (%) 1.05 ([1]; 60° C. 21 d): 0.03%; Total impurities (%) ([1]; 60° C. 21 d): 0.09%; RRT (%) 0.79 [1, 8]: 0.04%; RRT (%) 0.88 [1, 8]: 0.02%; moisture absorbed (DVS) ([2]; at 95% RH): 0.07%
Cc1cc(N2CCN(Cc3cc(F)c(C(=O)NS(=O)(=O)C4CC4)cc3Cl)CC2)ccc1Cl [crystal form E-1, 5-chloro-4-((4-(4-chloro-3-methylphenyl)piperazin-1-yl)methyl)-N-(cyclopropylsulfonyl)-2-fluorobenzamide]	0.019 (≈ 38 µM)	0.002	0.035	>2.669																	
Cc1cc(N2CCN(Cc3cc(F)c(C(=O)NS(=O)(=O)C4CC4)cc3Cl)CC2)ccc1Cl [crystal form E-3, 5-chloro-4-((4-(4-chloro-3-methylphenyl)piperazin-1-yl)methyl)-N-(cyclopropylsulfonyl)-2-fluorobenzamide]	0.016 (≈ 32 µM)		0.096	>2.780	0.08	99.79	0.06	0.26	106.4	99.71	0.04	0.29	99.5	0.08	99.78	0.06	0.22	105.1	99.71	has hygroscopicity	solubility at 4 h (Solubility experiment; buffer pH 4.5, pH 4.5, aqueous buffer, thermodynamic from solid, buffer pH 4.5, room temperature, read-out: Solubility (mg/mL) pH4.5): 0.002 mg/mL (≈ 4 µM); RRT (%) 0.54 [1, 5]: 0.13%; RRT (%) 0.54 [1, 6]: 0.09%; RRT (%) 0.86 [1, 6]: 0.07%; RRT (%) 0.54 [1, 7]: 0.09%; RRT (%) 1.05 ([1]; 60° C. 21 d): 0.04%; Total impurities (%) ([1]; 60° C. 21 d): 0.30%; RRT (%) 0.54 [1, 8]: 0.08%; RRT (%) 0.86 [1, 8]: 0.07%; moisture absorbed (DVS) ([2]; when RH is 85%): 2%
Cc1cc(N2CCN(Cc3cc(F)c(C(=O)NS(=O)(=O)C4CC4)cc3Cl)CC2)ccc1Cl [crystal form F, 5-chloro-4-((4-(4-chloro-3-methylphenyl)piperazin-1-yl)methyl)-N-(cyclopropylsulfonyl)-2-fluorobenzamide]	0.017 (≈ 34 µM)	0.002	0.050	>3.154	0.05	99.86	0.03	0.14	98.4	99.90	0.04	0.10	99.7	0.03	99.87	0.04	0.13	101.0	99.80	has hygroscopicity	RRT (%) 0.79 [1, 5]: 0.06%; RRT (%) 0.79 [1, 6]: 0.04%; RRT (%) 0.79 [1, 7]: 0.06%; RRT (%) 1.05 ([1]; 60° C. 21 d): 0.03%; Total impurities (%) ([1]; 60° C. 21 d): 0.20%; RRT (%) 0.79 [1, 8]: 0.05%; RRT (%) 0.86 [1, 8]: 0.03%; RRT (%) 0.88 [1, 8]: 0.02%; moisture absorbed (DVS) ([2]; when RH is 85%): 4%
Cc1cc(N2CCN(Cc3cc(F)c(C(=O)NS(=O)(=O)C4CC4)cc3Cl)CC2)ccc1Cl [crystal form I, 5-chloro-4-((4-(4-chloro-3-methylphenyl)piperazin-1-yl)methyl)-N-(cyclopropylsulfonyl)-2-fluorobenzamide]																				slightly hygroscopic	stability of the crystal form (assessment in words) [3]: good stability
Cc1cc(N2CCN(Cc3cc(F)c(C(=O)NS(=O)(=O)C4CC4)cc3Cl)CC2)ccc1Cl [crystal form II, 5-chloro-4-((4-(4-chloro-3-methylphenyl)piperazin-1-yl)methyl)-N-(cyclopropylsulfonyl)-2-fluorobenzamide]																				hygroscopic	
Cc1cc(N2CCN(Cc3cc(F)c(C(=O)NS(=O)(=O)C4CC4)cc3Cl)CC2)ccc1Cl [crystal form III, 5-chloro-4-((4-(4-chloro-3-methylphenyl)piperazin-1-yl)methyl)-N-(cyclopropylsulfonyl)-2-fluorobenzamide]																				slightly hygroscopic	stability of the crystal form (assessment in words) [3]: metastable crystal form; crystal form after shaking of mixed forms [3]: converted into crystal form I; crystal form after shaking ([3]; shaken in ACE and MeOH at 50° C. for 1 day): unchanged
Cc1cc(N2CCN(Cc3cc(F)c(C(=O)NS(=O)(=O)C4CC4)cc3Cl)CC2)ccc1Cl [crystal form IV, 5-chloro-4-((4-(4-chloro-3-methylphenyl)piperazin-1-yl)methyl)-N-(cyclopropylsulfonyl)-2-fluorobenzamide]																				slightly hygroscopic	stability of the crystal form (assessment in words) [3]: metastable crystal form; crystal form after shaking of mixed forms [3]: converted into crystal form I; crystal form after shaking ([3]; shaken in ACE at 50° C. for 1 day): unchanged
Cc1cc(N2CCN(Cc3cc(F)c(C(=O)NS(=O)(=O)C4CC4)cc3Cl)CC2)ccc1Cl [crystal form V, 5-chloro-4-((4-(4-chloro-3-methylphenyl)piperazin-1-yl)methyl)-N-(cyclopropylsulfonyl)-2-fluorobenzamide]																				slightly hygroscopic	crystal form after heating ([3]; heated to 150° C.): converted into crystal form I
